Reference: US12257287B2, “Glucagon-derived peptide and use thereof” (Tianjin Institute of Pharmaceutical Research Co., Ltd., priority 2018, dated 2025)
Numbered stars: 1 amine (or outer) side, 2 acyl side, 3 side chain; on linkers, the order of the positions; unused ones are H or OH. Square brackets hold non-standard residues; d marks the D form. Side chains are listed from the residue outwards. Peptide text beside a SMILES is read from it. * marks the point of attachment. C20 diacid = O=C(O)CCCCCCCCCCCCCCCCCCC(=O)*; C18 diacid = O=C(O)CCCCCCCCCCCCCCCCC(=O)*; γGlu = O=C(O)[C@H](CCC(=O)[*:2])N[*:1]; AEEA = NCCOCCOCC(=O)O; Aib = CC(C)(N)C(=O)O

Biological target: T1, GC receptor (Homo sapiens, UniProt P47871)
T1 construct: expressed in transfected cells; host or cells: HEK293 cells
Experiment: GC receptor mediated cAMP production in vitro (HEK293 cells transfected with GC receptor)
Format: cell-based
Conditions: 20 min at 37° C., read-out: GCGR (nM EC50)
Excerpt: The medium was removed, the cells were lysed, and cAMP values were detected referring to the detection method described for the assay kit.

T1 sequence (P47871 26-477): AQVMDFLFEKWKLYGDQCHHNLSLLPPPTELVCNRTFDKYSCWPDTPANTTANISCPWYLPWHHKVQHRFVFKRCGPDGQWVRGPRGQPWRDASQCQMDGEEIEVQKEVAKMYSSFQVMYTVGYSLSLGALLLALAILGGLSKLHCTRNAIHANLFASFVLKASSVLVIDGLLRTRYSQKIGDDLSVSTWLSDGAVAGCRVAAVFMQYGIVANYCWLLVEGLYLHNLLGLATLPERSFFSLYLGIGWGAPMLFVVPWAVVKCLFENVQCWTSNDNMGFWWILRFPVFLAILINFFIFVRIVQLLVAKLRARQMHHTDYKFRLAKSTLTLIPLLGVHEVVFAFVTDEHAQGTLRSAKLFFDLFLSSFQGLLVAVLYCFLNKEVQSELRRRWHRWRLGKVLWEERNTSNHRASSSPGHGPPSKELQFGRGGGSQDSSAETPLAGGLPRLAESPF

SMILES	EC50 [nM]
CCCCCCCCCCCCCCCC(=O)N[C@@H](CCC(=O)N[C@@H](CCC(=O)NCCCC[C@H](NC(=O)[C@H](CC(=O)O)NC(=O)[C@H](CO)NC(=O)[C@@H](NC(=O)[C@H](Cc1ccccc1)NC(=O)[C@@H](NC(=O)CNC(=O)[C@H](CCC(N)=O)NC(=O)C(C)(C)NC(=O)[C@@H](N)Cc1c[nH]cn1)[C@@H](C)O)[C@@H](C)O)C(=O)N[C@@H](CO)C(=O)N[C@@H](CCCCN)C(=O)N[C@@H](Cc1ccc(O)cc1)C(=O)N[C@@H](CC(C)C)C(=O)N[C@@H](CCC(=O)O)C(=O)N[C@@H](CCC(=O)O)C(=O)N[C@@H](CCCCN)C(=O)N[C@@H](CCCNC(=N)N)C(=O)N[C@@H](C)C(=O)N[C@@H](CCCCN)C(=O)N[C@@H](CCC(=O)O)C(=O)N[C@@H](Cc1ccccc1)C(=O)N[C@H](C(=O)N[C@@H](CCC(=O)O)C(=O)N[C@@H](Cc1c[nH]c2ccccc12)C(=O)N[C@@H](CC(C)C)C(=O)N[C@@H](CCC(=O)O)C(=O)N[C@@H](C)C(=O)NCC(=O)NCC(=O)N1CCC[C@H]1C(=O)N[C@@H](CO)C(=O)N[C@@H](CO)C(=O)NCC(N)=O)[C@@H](C)CC)C(=O)O)C(=O)O [Compound 11] (HELM PEPTIDE1{H.[Aib].Q.G.T.F.T.S.D.K.S.K.Y.L.E.E.K.R.A.K.E.F.I.E.W.L.E.A.G.G.P.S.S.G.[am]}|PEPTIDE2{[CCCCCCCCCCCCCCCC(=O)[*:2]].[gGlu].[gGlu]}$PEPTIDE1,PEPTIDE2,10:R3-3:R2$$$V2.0; N-terminus assumed)	1.73
CC(C)C[C@H](NC(=O)[C@H](Cc1c[nH]c2ccccc12)NC(=O)[C@H](CCC(=O)O)NC(=O)[C@@H](NC(=O)[C@H](Cc1ccccc1)NC(=O)[C@H](CCC(=O)O)NC(=O)[C@H](CCCCNC(=O)COCCOCCNC(=O)COCCOCCNC(=O)CC[C@H](NC(=O)CCCCCCCCCCCCCCCCC(=O)O)C(=O)O)NC(=O)[C@H](C)NC(=O)[C@H](C)NC(=O)[C@H](CCCNC(=N)N)NC(=O)[C@H](CCC(=O)O)NC(=O)[C@H](CCC(=O)O)NC(=O)[C@H](CC(C)C)NC(=O)[C@H](Cc1ccc(O)cc1)NC(=O)[C@H](CCCCN)NC(=O)[C@H](CO)NC(=O)[C@H](Cc1ccc(O)cc1)NC(=O)[C@H](CC(=O)O)NC(=O)[C@H](CO)NC(=O)[C@@H](NC(=O)[C@H](Cc1ccccc1)NC(=O)[C@@H](NC(=O)CNC(=O)[C@H](CCC(N)=O)NC(=O)C(C)(C)NC(=O)[C@@H](N)Cc1c[nH]cn1)[C@@H](C)O)[C@@H](C)O)C(C)C)C(=O)N[C@@H](CCC(=O)O)C(=O)NCC(=O)NCC(=O)N1CCC[C@H]1C(=O)N[C@@H](CO)C(=O)N[C@@H](CO)C(=O)NCC(N)=O [Compound 32] (H-H[Aib]QGTFTSDYSKYLEERAAK([AEEA-AEEA-γGlu-C18 diacid])EFVEWLEGGPSSG-NH2; N-terminus assumed)	0.077
CC[C@H](C)[C@H](NC(=O)[C@H](Cc1ccccc1)NC(=O)[C@H](CCC(=O)O)NC(=O)[C@H](CCCCNC(=O)COCCOCCNC(=O)COCCOCCNC(=O)CC[C@H](NC(=O)CCCCCCCCCCCCCCCCC(=O)O)C(=O)O)NC(=O)[C@H](C)NC(=O)[C@H](C)NC(=O)[C@H](CCCNC(=N)N)NC(=O)[C@H](CCC(=O)O)NC(=O)[C@H](CC(=O)O)NC(=O)[C@H](CC(C)C)NC(=O)[C@H](Cc1ccc(O)cc1)NC(=O)[C@H](CCCCN)NC(=O)[C@H](CO)NC(=O)[C@H](Cc1ccc(O)cc1)NC(=O)[C@H](CC(=O)O)NC(=O)[C@H](CO)NC(=O)[C@@H](NC(=O)[C@H](Cc1ccccc1)NC(=O)[C@@H](NC(=O)CNC(=O)[C@H](CCC(N)=O)NC(=O)[C@H](CO)NC(=O)[C@@H](N)Cc1c[nH]cn1)[C@@H](C)O)[C@@H](C)O)C(=O)N[C@@H](C)C(=O)N[C@@H](Cc1c[nH]c2ccccc12)C(=O)N[C@@H](CC(C)C)C(=O)N[C@@H](CCC(=O)O)C(=O)NCC(=O)NCC(=O)N1CCC[C@H]1C(=O)N[C@@H](CO)C(=O)N[C@@H](CO)C(=O)NCC(N)=O [Compound 38] (H-HSQGTFTSDYSKYLDERAAK([AEEA-AEEA-γGlu-C18 diacid])EFIAWLEGGPSSG-NH2; N-terminus assumed)	0.102
CC(C)C[C@H](NC(=O)[C@H](Cc1c[nH]c2ccccc12)NC(=O)[C@H](C)NC(=O)[C@@H](NC(=O)[C@H](Cc1ccccc1)NC(=O)[C@H](CCC(=O)O)NC(=O)[C@H](CCCCNC(=O)COCCOCCNC(=O)COCCOCCNC(=O)CC[C@H](NC(=O)CCCCCCCCCCCCCCCCC(=O)O)C(=O)O)NC(=O)[C@H](C)NC(=O)[C@H](CCCNC(=N)N)NC(=O)[C@H](CCCCN)NC(=O)[C@H](CCC(=O)O)NC(=O)[C@H](CCC(=O)O)NC(=O)[C@H](CC(C)C)NC(=O)[C@H](Cc1ccc(O)cc1)NC(=O)[C@H](CCCCN)NC(=O)[C@H](CO)NC(=O)[C@H](Cc1ccc(O)cc1)NC(=O)[C@H](CC(=O)O)NC(=O)[C@H](CO)NC(=O)[C@@H](NC(=O)[C@H](Cc1ccccc1)NC(=O)[C@@H](NC(=O)CNC(=O)[C@H](CCC(N)=O)NC(=O)C(C)(C)NC(=O)[C@@H](N)Cc1c[nH]cn1)[C@@H](C)O)[C@@H](C)O)C(C)C)C(=O)N[C@@H](CCC(=O)O)C(=O)NCC(=O)NCC(=O)N1CCC[C@H]1C(=O)N[C@@H](CO)C(=O)N[C@@H](CO)C(=O)NCC(N)=O [Compound 74] (H-H[Aib]QGTFTSDYSKYLEEKRAK([AEEA-AEEA-γGlu-C18 diacid])EFVAWLEGGPSSG-NH2; N-terminus assumed)	0.725
CC(C)C[C@H](NC(=O)[C@H](Cc1c[nH]c2ccccc12)NC(=O)[C@H](C)NC(=O)[C@@H](NC(=O)[C@H](Cc1ccccc1)NC(=O)[C@H](CCC(=O)O)NC(=O)[C@H](CCCCN)NC(=O)[C@H](C)NC(=O)[C@H](C)NC(=O)[C@H](CCCNC(=N)N)NC(=O)[C@H](CCC(=O)O)NC(=O)[C@H](CCC(=O)O)NC(=O)[C@H](CC(C)C)NC(=O)[C@H](Cc1ccc(O)cc1)NC(=O)[C@H](CCCCN)NC(=O)[C@H](CO)NC(=O)[C@H](CCCCNC(=O)COCCOCCNC(=O)COCCOCCNC(=O)CC[C@H](NC(=O)CCCCCCCCCCCCCCCCC(=O)O)C(=O)O)NC(=O)[C@H](CC(=O)O)NC(=O)[C@H](CO)NC(=O)[C@@H](NC(=O)[C@H](Cc1ccccc1)NC(=O)[C@@H](NC(=O)CNC(=O)[C@H](CCC(N)=O)NC(=O)C(C)(C)NC(=O)[C@@H](N)Cc1c[nH]cn1)[C@@H](C)O)[C@@H](C)O)C(C)C)C(=O)N[C@@H](CCCCN)C(=O)N[C@@H](CCC(=O)O)C(=O)NCC(=O)NCC(=O)N1CCC[C@H]1C(=O)N[C@@H](CO)C(=O)N[C@@H](CO)C(=O)NCC(N)=O [Compound 17] (H-H[Aib]QGTFTSDK([AEEA-AEEA-γGlu-C18 diacid])SKYLEERAAKEFVAWLKEGGPSSG-NH2; N-terminus assumed)	0.486
CC[C@H](C)[C@H](NC(=O)[C@H](Cc1ccccc1)NC(=O)[C@H](CCC(=O)O)NC(=O)[C@H](CCCCNC(=O)COCCOCCNC(=O)COCCOCCNC(=O)CC[C@H](NC(=O)CCCCCCCCCCCCCCCCC(=O)O)C(=O)O)NC(=O)[C@H](C)NC(=O)[C@H](CCCNC(=N)N)NC(=O)[C@H](CCCCN)NC(=O)[C@H](CCC(=O)O)NC(=O)[C@H](CC(=O)O)NC(=O)[C@H](CC(C)C)NC(=O)[C@H](Cc1ccc(O)cc1)NC(=O)[C@H](CCCCN)NC(=O)[C@H](CO)NC(=O)[C@H](Cc1ccc(O)cc1)NC(=O)[C@H](CC(=O)O)NC(=O)[C@H](CO)NC(=O)[C@@H](NC(=O)[C@H](Cc1ccccc1)NC(=O)[C@@H](NC(=O)CNC(=O)[C@H](CCC(N)=O)NC(=O)C(C)(C)NC(=O)[C@@H](N)Cc1c[nH]cn1)[C@@H](C)O)[C@@H](C)O)C(=O)N[C@@H](C)C(=O)N[C@@H](Cc1c[nH]c2ccccc12)C(=O)N[C@@H](CC(C)C)C(=O)N[C@@H](CCC(=O)O)C(=O)N[C@@H](C)C(=O)NCC(=O)NCC(=O)N1CCC[C@H]1C(=O)N[C@@H](CO)C(=O)N[C@@H](CO)C(=O)NCC(N)=O [Compound 50] (H-H[Aib]QGTFTSDYSKYLDEKRAK([AEEA-AEEA-γGlu-C18 diacid])EFIAWLEAGGPSSG-NH2; N-terminus assumed)	0.048
CC[C@H](C)[C@H](NC(=O)[C@H](Cc1ccccc1)NC(=O)[C@H](CCC(=O)O)NC(=O)[C@H](CCCCNC(=O)COCCOCCNC(=O)COCCOCCNC(=O)CC[C@H](NC(=O)CCCCCCCCCCCCCCCCC(=O)O)C(=O)O)NC(=O)[C@H](C)NC(=O)[C@H](CCCCN)NC(=O)[C@H](CCCNC(=N)N)NC(=O)[C@H](CCC(=O)O)NC(=O)[C@H](CCC(=O)O)NC(=O)[C@H](CC(C)C)NC(=O)[C@H](Cc1ccc(O)cc1)NC(=O)[C@H](CCCCN)NC(=O)[C@H](CO)NC(=O)[C@H](Cc1ccc(O)cc1)NC(=O)[C@H](CC(=O)O)NC(=O)[C@H](CO)NC(=O)[C@@H](NC(=O)[C@H](Cc1ccccc1)NC(=O)[C@@H](NC(=O)CNC(=O)[C@H](CCC(N)=O)NC(=O)C(C)(C)NC(=O)[C@@H](N)Cc1c[nH]cn1)[C@@H](C)O)[C@@H](C)O)C(=O)N[C@@H](C)C(=O)N[C@@H](Cc1c[nH]c2ccccc12)C(=O)N[C@@H](CC(C)C)C(=O)N[C@@H](CCC(=O)O)C(=O)N[C@@H](C)C(=O)NCC(=O)NCC(=O)N1CCC[C@H]1C(=O)N[C@@H](CO)C(=O)N[C@@H](CO)C(=O)NCC(N)=O [Compound 44] (H-H[Aib]QGTFTSDYSKYLEERKAK([AEEA-AEEA-γGlu-C18 diacid])EFIAWLEAGGPSSG-NH2; N-terminus assumed)	0.219
CC[C@H](C)[C@H](NC(=O)[C@H](Cc1ccccc1)NC(=O)[C@H](CCC(=O)O)NC(=O)[C@H](CCCCNC(=O)COCCOCCNC(=O)COCCOCCNC(=O)CC[C@H](NC(=O)CCCCCCCCCCCCCCCCCCC(=O)O)C(=O)O)NC(=O)[C@H](C)NC(=O)[C@H](CCCCN)NC(=O)[C@H](CCCNC(=N)N)NC(=O)[C@H](CCC(=O)O)NC(=O)[C@H](CCC(=O)O)NC(=O)[C@H](CC(C)C)NC(=O)[C@H](Cc1ccc(O)cc1)NC(=O)[C@H](CCCCN)NC(=O)[C@H](CO)NC(=O)[C@H](Cc1ccc(O)cc1)NC(=O)[C@H](CC(=O)O)NC(=O)[C@H](CO)NC(=O)[C@@H](NC(=O)[C@H](Cc1ccccc1)NC(=O)[C@@H](NC(=O)CNC(=O)[C@H](CCC(N)=O)NC(=O)C(C)(C)NC(=O)[C@@H](N)Cc1c[nH]cn1)[C@@H](C)O)[C@@H](C)O)C(=O)N[C@@H](C)C(=O)N[C@@H](Cc1c[nH]c2ccccc12)C(=O)N[C@@H](CC(C)C)C(=O)N[C@@H](CCC(=O)O)C(=O)NCC(=O)NCC(=O)N1CCC[C@H]1C(=O)N[C@@H](CO)C(=O)N[C@@H](CO)C(=O)NCC(N)=O [Compound 68] (H-H[Aib]QGTFTSDYSKYLEERKAK([AEEA-AEEA-γGlu-C20 diacid])EFIAWLEGGPSSG-NH2; N-terminus assumed)	0.314
